Results published in patent US10265378B2, “Combination therapy for head and neck cancer” (Cornell University, priority 2014, dated 2019).

Key:
[1] = test system: IL-6; test: Immunohistochemistry of tongue epithelium: IL-6; type: in vivo, mouse; conditions: compared to the 4-NQO group; antibody staining
Text: (§1) The tongues were fixed, embedded in paraffin, and sectioned. Then the tissue sections were stained with various antibodies (magnification, 200×). Four to five representative areas of each tongue section from two to four mice/group were photographed and analyzed (FIGS. 12A and 12B). Interleukin-6 (IL-6) is a multifunctional cytokine that is involved in the regulation of immune responses and cellular functions. IL-6 levels are enhanced in human oral squamous cell carcinoma and IL-6 is considered a bad prognostic factor in this cancer (Expert Opin Ther Targets. 2013 January; 17(1):53-9). IL-6 protein was detected primarily in the basal layer of tongue epithelium in the UNT samples (FIG. 12A, arrows), but in the 4-NQO treated samples we observed both an increase in the protein level and an expansion of IL-6 signal to the suprabasal layers of the tongue epithelium (FIG. 12A).

[2] = test system: MCT4; test: Immunohistochemistry of tongue epithelium: MCT4; type: in vivo, mouse; conditions: compared to the 4-NQO group; antibody staining
Text: as §1

[3] = Consumption of drug containing drinking water and diet; type: in vivo, mouse; conditions: 4-NQO treated mice, 15 week post 4-NQO treatment
Text: (§2) Drug treatments reduce tongue tumor development. All of the mice tolerated the 10 week 4-NQO treatment, and almost all of the mice survived the 15 week post 4-NQO treatment period (A). We determined that the CD1530 in the regular drinking water was stable for at least 7 days at room temperature by HPLC analysis (FIG. 7); thus, we decided to use drinking water as a delivery method because this method is effective and less laborious.

[4] = Stability of CD1530 in drinking water by HPLC; type: physicochemical; conditions: room temperature, final DMSO 0.8%
Text: FIG. 7. CD1530 is stable in the drinking water for at least 7 days at room temperature. CD1530 was first dissolved in 100% DMSO and subsequently diluted in the drinking water (the final concentration of DMSO was 0.8%). The same amounts of the freshly prepared CD1530 containing drinking water and the CD1530 containing water prepared 7 days earlier and stored at the room temperature were subjected to high-performance liquid chromatography (HPLC) analysis.
as §2

[5] = test system: 4-hydroxynonenal (4-HNE), marker of oxidative stress; test: Immunohistochemistry of tongue epithelium: 4-HNE; type: in vivo, mouse; conditions: compared to the 4-NQO group; antibody staining
Experimental: Immunohistochemistry. Paraffin embedded tongue sections were stained with various antibodies (supporting information).
Immunohistochemistry. Paraffin-embedded sections (from two to four mice per group) were deparaffinized and rehydrated, and antigen retrieval was performed using an antigen unmasking solution (Vector Laboratories, H-3300). After quenching endogenous peroxidase with 3% H2O2, the tissue sections were blocked with the blocking reagent (from the M.O.M. kit from Vector Laboratories for 4-HNE) or 10% goat serum (Vector Laboratories). Then, tissue sections were incubated with a 4-HNE antibody (1:700; mouse monoclonal antibody; Abcam, ab48506), a β-catenin antibody (1:400; rabbit polyclonal antibody; Abcam, ab6302), or a MMP9 antibody (1:70; rabbit polyclonal antibody; Abcam, ab38898), respectively, overnight at 4° C. The sections were then incubated with secondary antibodies (1:200, anti-mouse IgG from the M.O.M kit for 4-1-INE; ready-to-use anti-rabbit IgG from the Invitrogen SuperPicture kit for β-catenin and MMP9). As a negative control, sections were stained without incubation with primary antibodies. The signals were visualized based on a peroxidase detection mechanism with 3,3-diaminobenzidine (DAB) used as the substrate. Four to five representative areas of each mouse tongue section from two to four mice per group were photographed and analyzed.

[6] = Mouse serum triglyceride level measurements; type: in vivo; conditions: treatment for 15 weeks; compared to the UNT group
Experimental: Mouse serum triglyceride level measurements. Blood samples from the mice were obtained from mouse tails. The analysis of serum triglyceride levels was carried out at the Laboratory of Comparative Pathology of the Memorial Sloan-Kettering Cancer Center. UNT (n=4); 4-NQO (n=3); 4N+B (n=4); 4N+C (n=3), and 4N+B+C (n=4).

For `O=C(O)c1ccc(-c2ccc3cc(O)c(C45CC6CC(CC(C6)C4)C5)cc3c2)cc1` [CD1530], the “IL-6 protein levels in the tongue epithelium” value [1] was “lower IL-6 protein levels”, the “MCT4 protein levels in the tongue epithelium” value [2] was “lower MCT4 protein levels” and the “consumption of drinking water containing drug vs regular drinking water” value [3] was “comparable”. For the same compound, the “stable in the drinking water” value [4] was “at least 7 days”, the “4-HNE levels in tongue samples” value [5] was “lower” and the serum triglyceride levels [6] was “did not change serum triglyceride levels significantly”.
